Data taken from patent publication US20130072459A1, “PHARMACEUTICAL COMPOSITION FOR THE PREVENTION OR THE TREATMENT OF NON-ALCOHOLIC FATTY LIVER DISEASE AND THE METHOD FOR PREVENTION OR TREATMENT OF NON-ALCOHOLIC FATTY LIVER DISEASE USING THE SAME” (priority 2010, published 2013).

How the values were obtained:
[1] = test system: activated hepatic stellate cells; assay: Expression of activity indicator proteins (TGFβ1, α-SMA) in activated hepatic stellate cells, Western blot; assay type: cell-based, rat (Wistar); settings: for 1 ng/mL TGFβ1-induced protein expression inhibition rate, TGFβ1 / 1 ng/mL TGFβ1-induced protein expression inhibition rate, α-SMA: 100 μM compound, 7 days, N = 3, corrected by β-actin; for protein expression levels of TGFβ1 and α-SMA, result in words: hTGF-β1-activated rat hepatic stellate cells
Description: An inhibitory action of the compounds of the present invention on the activation of hepatic stellate cells was tested according to the following cell culture method. Male rats (Wistar rats), weighing 500 to 700 g, were anesthetized, followed by an abdominal incision, and cannulae were connected to hepatic portal veins, followed by sequential perfusion with a Hank's Balanced Salt Solution (HBSS) containing heparin and an HBSS containing type 1 collagenase. After the perfusion was complete, the liver was excised, ground with surgical scissors, and added to an HBSS containing type 1 collagenase, followed by shaking culture at 37° C. for 15 minutes. The completely ground liquid-state liver tissue was passed through gauze and centrifuged at 500 g for 10 minutes. The resulting mingled cell precipitate was washed with a phosphate buffer, followed by centrifugation at 100 g for 5 minutes, and the supernatant was collected. The supernatant was further centrifuged at 500 g for 10 minutes to obtain a precipitate to which a 9:1 (v/v) mixture of a Ficoll liquid (GE Healthcare) and a Percoll liquid (GE Healthcare) was added, followed by mixing. A phosphate buffer was gently placed on the mixed layer, followed by centrifugation at 1,400 g for 15 minutes. Then, the cell layer formed between the upper layer and the lower layer was recovered and washed once with a Dulbecco's Modified Eagle Medium (DMEM) containing 10(v/v) % fetal bovine serum. The resulting cells were added at a cell density of 3.1×10^5 cells/cm^2, the medium was exchanged with a fresh medium after 24 hours, and cultured for 7 days with exchange of the medium at intervals of 2 to 3 days. Then, the drugs were treated at specified concentrations in a medium containing 1 ng/ml of a human transforming growth factor (TGF) β1 and a medium containing no TGF β1. TGF β1 was dissolved in dimethylsulfoxide (DMSO) to a concentration 1.000-fold higher than the desired treatment concentration of the drug, 1.000-fold diluted in a medium to be a 1-fold (1×) volume, and then treated on cells. After 7 days of the drug treatment, the medium was harvested and washed with a phosphate buffer. A buffer containing a surfactant was added thereto and the cells were lysed. Then, proteins were quantified, electrophoresed on a 4-12% Bis-Tris gel (Invitrogen), and transferred to a nitrocellulose membrane. The transferred proteins were reacted with primary antibodies specific for α-smooth muscle actin (α-SMA) or TGFβ1, and then reacted with horse radish peroxidase-conjugated specific secondary antibodies. The expression level of the target protein was confirmed using a chemiluminescent liquid and corrected in terms of actin (β-actin) expression level (FIG. 9). The decrement of observed protein expression by 100 μM of individual compounds of the present invention was expressed as a percentage drug-induced decrement, based an increment of protein expression in the TGFβ1-treated positive control group relative to the negative control group to which only DMSO was added (Table 3).

HepG2 cells = assay: Free fatty acid-induced intracellular fat accumulation, Nile Red staining; assay type: cell-based, human; settings: 0.5 mM free fatty acid, 24 hours
Description: By a combined treatment of free fatty acid and a drug, inhibitory effects of individual drugs on intracellular fat accumulation were quantified using a triglyceride staining method. The human hepatoma cell line, HepG2 cells were cultured in a minimum essential medium (MEM) containing 10(v/v) % fetal bovine serum for 48 hours. […] For the negative control group, a MEM containing 1(v/v) % bovine serum albumin was treated with 0.1(v/v) % dimethyl sulfoxide with no addition of free fatty acid. After the culture was complete, the medium was removed and the cells were washed with a phosphate buffer. […] After the staining was complete, the supernatant was discarded and replaced with a phosphate buffer, followed by measurement of fluorescence intensities under conditions of a 488 nm excitation wavelength and a 550 nm emission wavelength. Then, in order to correct a deviation according to the cell count, a phosphate buffer containing 10 μM resazurin (Sigma) dissolved therein was added to the same well. Thereafter, before and after the reaction at 37° C. for 1 hour under light-shielded conditions, fluorescence intensities were measured using a fluorometer under conditions of a 535 nm excitation wavelength and a 580 nm emission wavelength, whereby an increase in fluorescence intensity due to resorufin reduced and formed by the intracellular mitochondrial activity was measured. Using the value of a fluorescence intensity of Nile Red corrected in terms of an increase in fluorescence intensity due to the reduction of resazurin, the experimental results were expressed as a percentage for the fat accumulation increased by a treatment with free fatty acid, as compared to the negative control group.

TGF-β1 = TGF-β1 mRNA expression in liver, CCl4-induced acute hepatic damage mouse model; assay type: in vivo, C57BL/6 mice; settings: for TGF-β1 expression inhibition rate (% CCl4 control group) / TGF-β1 expression (normalized by actin): 3 days; for TGF-β1 expression (normalized by actin): CCl4 0.1 ml/kg i.p.
Description: In order to investigate inhibitory effects of compounds of the present invention on expression of TGF-β1 which is known to play a crucial role in a fibrosis process of hepatocytes in a CCl4-induced acute hepatic damage mouse model, the following experiment was carried out. 7-week old male C57BL/6 mice were stabilized and divided into 9 groups (n=7) according to the body weight, followed by intraperitoneal administration of CCl4 (0.1 ml/kg). The normal control group was administered an olive oil. The control group was orally administered a vehicle solution (0.5% MC) once a day at a dose of 10 ml/kg, at intervals of 24 hours for 3 days. The remaining groups were orally administered once a day tartrate of Compound 1 at doses of 30, 100 and 300 mg/kg, sitagliptin phosphate (prepared according to the method described in WO2004/085378 or WO2005/003135) at doses of 100 and 300 mg/kg, and vildagliptin (Trademax, China) at doses of 100 and 300 mg/kg, respectively, according to the designated groups. 1 hour after the final oral administration, animals were dissected and the excised liver was subjected to evaluation of TGF-β1 mRNA expression. The liver tissue stored in liquid nitrogen was homogenized in a TRIZOL solution and then the total RNAs were extracted. The isolated RNAs were diluted to a concentration of 1 μg/μL in 0.1(v/v) % DEPC (diethyl pyrocarbonate), and then the RNA mixture [2 μg/μL each RNA+2 μL of 0.5 μg/μL oligo d(T)15+up to 15 μL of 0.1% DEPC water] was incubated using a PCR apparatus at 72° C. for 5 minutes, followed by quenching on ice. The mixture [1 μL of PCR nucleotide mix+5 μL of 5×MMLV RT bf.(Promega, M531A)+1 μL of […] M-MLV reverse] was prepared, and then subjected to elongation at 42° C. for 60 minutes, denaturation at 95° C. for 5 minutes and quenching at 8° C. to synthesize cDNAs which were stored at −20° C. until subsequent use. In order to carry out RT-PCR, the mixture [1 μL of 20 pmol each Primer+9.5 μL of Nuclease-free water] was prepared and then 2 μL of each cDNA was placed in sterile PCR tubes to which 12.5 μL of remix Taq™ (RR003A, TaKaRa) was then added, followed by mixing. PCR was carried out under the following conditions (Table 4), using Thermal Cycler (PTC-200, MJ Research). PCT products were electrophoresed and analyzed using an Image Analyzer (Vilber Lourmat). Using β-actin expression, the expression of a target gene TGF-β1 was subjected to normalization (FIG. 11).

[2] = test system: high fat diet-induced simple steatosis; assay: Non-alcoholic fatty liver-preventing effects on high fat diet-induced simple steatosis in mice (oral, 28 days); assay type: in vivo, C57BL/6 mice; settings: for Triglyceride increase inhibition (%) relative to high fat diet-fed group / Triglyceride increment (%) relative to standard diet-fed group: 28 days, high fat diet
Description: 7-week old male C57BL/6 mice were stabilized and then divided into 9 groups (n=9) according to the body weight and blood glucose level. A standard diet-fed group and a high fat diet-fed group were orally administered a vehicle solution (0.5% MC (methylene cellulose)) of each diet once a day at a dose of 10 ml/kg, and the remaining groups were orally given once a day for 28 days a high fat diet in conjunction with tartrate of Compound 1 at doses of 30, 100 and 300 mg/kg, sitagliptin phosphate at doses of 100 and 300 mg/kg, and vildagliptin at doses of 100 mg/kg and 300 mg/kg, respectively, according to the designated groups. 24 hours after the final oral administration, animals were dissected and the excised liver was homogenized in a 5(v/v) % Triton-X solution to which a triglyceride working reagent was then added, followed by measurement of an absorbance at 540 nm to determine the content of triglyceride (Table 2). In addition, a portion of the excised liver was fixed in a 10(v/v) % formalin solution and then a tissue sample was prepared, followed by hematoxylin & eosin(HE) staining and photographing (FIG. 8).

Compound: CC#CCn1c(N2CCC[C@@H](N)C2)nc2c1c(=O)n(Cc1nc(C)c3ccccc3n1)c(=O)n2C [linagliptin]
- 1 ng/mL TGFβ1-induced protein expression inhibition rate, TGFβ1 [1]: 64 ± 17.2%
- 1 ng/mL TGFβ1-induced protein expression inhibition rate, α-SMA [1]: 159 ± 17.5%
- protein expression levels of TGFβ1 and α-SMA, result in words [1]: lowered

Compound: CN(C)C(=N)N=C(N)N [metformin]
- inhibition at 1000 µM (HepG2 cells; Homo sapiens, HepG2, 1 mM, read-out: inhibitory effects on free fatty acid-induced fat accumulation): 23.6 ± 5%

Compound: N#C[C@@H]1CCCN1C(=O)CNC12CC3CC(CC(O)(C3)C1)C2 [vildagliptin]
- 1 ng/mL TGFβ1-induced protein expression inhibition rate, TGFβ1 [1]: 14 ± 32.8%
- 1 ng/mL TGFβ1-induced protein expression inhibition rate, α-SMA [1]: −56 ± 8.4%
- protein expression levels of TGFβ1 and α-SMA, result in words [1]: lowered
- TGF-β1 expression inhibition rate (% CCl4 control group) (TGF-β1; 100 mg/kg oral once a day): 92%
- TGF-β1 expression (normalized by actin) (TGF-β1; 100 mg/kg oral once a day): 1.02 ± 0.09
- TGF-β1 expression inhibition rate (% CCl4 control group) (TGF-β1; 300 mg/kg oral once a day): 115%
- TGF-β1 expression (normalized by actin) (TGF-β1; 300 mg/kg oral once a day): 0.96 ± 0.12
- maximum decrement in TGF-β1 mRNA expression of the liver relative to the CCl4 control group (TGF-β1; maximum over the doses tested): 115%
- expression of TGF-β1 mRNA of the liver, result in words (TGF-β1; vs CCl4 group): normalization
- Triglyceride increase inhibition (%) relative to high fat diet-fed group ([2]; 100 mg/kg oral once a day): 24%
- Triglyceride increment (%) relative to standard diet-fed group ([2]; 100 mg/kg oral once a day): 38%
- Triglyceride increase inhibition (%) relative to high fat diet-fed group ([2]; 300 mg/kg oral once a day): 79%
- Triglyceride increment (%) relative to standard diet-fed group ([2]; 300 mg/kg oral once a day): 11%
- lipid droplets in liver tissue sample (histological evaluation), result in words ([2]; HE staining, FIG. 8): reduction of lipid droplets
- maximum decrement of the hepatic triglyceride content relative to the high fat diet-fed group ([2]; maximum over the doses tested): 79%

Compound: glucagon-like peptide-1 [GLP-1]
- inhibitory effects on free fatty acid-induced fat accumulation (HepG2 cells; 100 nM): 28.0±4.9%
